pIC50: −log10 of the molar value. Counter-ions that a name gives are not always drawn. Like-named read-outs stand apart in the source and are kept apart here.
Legend:
[1] = target: T1, Human fibrinogen receptor (αIIbβ3) (Homo sapiens, UniProt P05106+P08514); test: Purified IIb/IIIa receptor assay (solid phase receptor assay, competition with biotinylated vitronectin); assay type: binding; details: read-out: IIb/IIIa IC50
T1 construct: Human fibrinogen receptor (αIIbβ3) was purified from outdated platelets; from tissue; host or cells: outdated human platelets
In short: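 Purified platelet αIIbβ3 coated overnight at 4 °C in TBS with 1.0 mM Ca/Mg/Mn, pH 7.4, then BSA-blocked. Compounds (top 1.0×10^−4 M) competed with 1 nM biotinylated vitronectin for 2 h at room temperature. Bound label detected by HRP anti-biotin, A450; values normalized to no-competitor controls, four-parameter fit.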

[2] = target: T2, Human vitronectin receptor (αvβ3) (Homo sapiens, UniProt P05106+P06756); test: Vitronectin adhesion assay (solid phase receptor assay, competition with biotinylated vitronectin); assay type: binding; details: read-out: AvB3 IC50
T2 construct: Human vitronectin receptor (αvβ3) was purified from human placenta; from tissue; host or cells: human placenta
In short: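 Purified human αvβ3 coated overnight at 4 °C in TBS with 1.0 mM Ca++, Mg++, Mn++, pH 7.4; compounds (top final 1.0×10^−4 M) competed with 1 nM biotinylated vitronectin for 2 h at room temperature. Bound ligand detected by HRP anti-biotin/OPD at A450; values normalized to no-competitor controls, four-parameter curve fit.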

[3] = tested on: platelet rich plasma; test: Human platelet rich plasma assay (ADP induced platelet aggregation); assay type: cell-based; details: ADP induced platelet aggregation in human platelet rich plasma, read-out: Human PRP
Protocol: Human Platelet Rich Plasma Assays
Healthy aspirin free donors were selected from a pool of volunteers. The harvesting of platelet rich plasma and subsequent ADP induced platelet aggregation assays were performed as described in Zucker, M. B., “Platelet Aggregation Measured by the Photometric Method”, Methods in Enzymology 169(1989):117-133. Standard venipuncture techniques using a butterfly allowed the withdrawal of 45 mL of whole blood into a 60 mL syringe containing 5 mL of 3.8% trisodium citrate. Following thorough mixing in the syringe, the anti-coagulated whole blood was transferred to a 50 mL conical polyethylene tube. The blood was centrifuged at room temperature for 12 minutes at 200×g to sediment non-platelet cells. Platelet rich plasma was removed to a polyethylene tube and stored at room temperature until used. Platelet poor plasma was obtained from a second centrifugation of the remaining blood at 2000×g for 15 minutes. Platelet counts are typically 300,000 to 500,000 per microliter. Platelet rich plasma (0.45 mL) was aliquoted into siliconized cuvettes and stirred (1100 rpm) at 37° C. for 1 minute prior to adding 50 uL of pre-diluted test compound. After 1 minute of mixing, aggregation was initiated by the addition of 50 uL of 200 uM ADP. Aggregation was recorded for 3 minutes in a Payton dual channel aggregometer (Payton Scientific, Buffalo, N.Y.). The percent inhibition of maximal response (saline control) for a series of test compound dilutions was used to determine a dose response curve.

Row | Molecule | pIC50 [1] | pIC50 [2] | pIC50 ([3]; Homo sapiens, Platelet) | pIC50 [3]
1 | 3S-[[2-[[[3-[(aminoiminomethyl)amino]phenyl]carbonyl]amino]acetyl]amino]-4-hydroxybutanoic acid [Example 86] | 6.61 | 8.06 | – | < 3.70
2 | N=C(N)Nc1cccc(C(=O)NCC(=O)NC(CCSc2ccccc2C(=O)O)CC(=O)O)c1 (racemic) [60(B), (±)2-[3-[[2-[[[3-[(aminoiminomethyl)amino]phenyl)carbonyl]amino]acetyl]amino]-4-carboxybutyl]thio]benzoic acid, trifluoroacetate salt] | 7.14 | 8.92 | – | < 3.70
3 | O=C(O)CC(NC(=O)CNC(=O)c1ccc(Cl)c(NC2=NCCCCC2)c1)c1cccnc1 (racemic) [Example 21, (±)β-[[2-[[[4-chloro-3-[(3,4,5,6-tetrahydro-2H-azepin-7-yl)amino]phenyl]carbonyl]amino]acetyl]amino]pyridine-3-propanoic acid, bis TFA Salt] | 5.72 | 8.61 | < 3.70 | –
4 | O=C(O)CC(NC(=O)CNC(=O)c1cc(NC2=NCCCCC2)cc(NC2=NCCCCC2)c1)c1cccnc1 (racemic) [Example 22, (±)β-[[2-[[[3,5-bis[(3,4,5,6-tetrahydro-2H-azepin-7-yl)amino]phenyl]carbonyl]amino]acetyl]amino]pyridine-3-propanoic acid, tris(trifluoroacetate)salt] | 6.55 | 8.86 | < 3.70 | –
5 | N=C(Nc1cccc(C(=O)NCC(=O)NC(CC(=O)O)c2cccnc2)c1)c1ccccc1 (racemic) [Example 26, (±)β-[[2-[[[3-[(iminophenylmethyl]amino]phenyl]carbonyl]amino]acetyl]amino]pyridine-3-propanoic acid, bis(trifluoroacetate)salt] | 6.09 | 7.85 | < 3.70 | –
6 | N=C(N)Nc1cc(C(=O)NCC(=O)NC(CC(=O)O)c2cc(C(F)(F)F)cc(C(F)(F)F)c2)cc(C(F)(F)F)c1 (racemic) [Example 39, (±)β-[[(2-[[[3-[(aminoiminomethyl)amino]-5-(trifluoromethyl)phenyl]carbonyl]amino]acetyl]amino]-3,5-bis(trifluoromethyl)benzenepropanoic acid, trifluoroacetate salt] | 5.81 | 7.91 | < 4.70 | –
7 | N=C(N)Nc1cc(NC(=O)C(F)(F)F)cc(C(=O)NCC(=O)NC(CC(=O)O)c2cc(Cl)cc(Cl)c2)c1 (stereo not drawn) [Example 292, β-[[2-[[[3-[(aminoiminomethyl)amino]-5-(trifluoroacetyl)amino]phenyl]carbonyl]amino]acetyl]amino]-3,5-dichlorobenzenepropanoic acid, trifluoroacetate salt] | 6.47 | 8.45 | – | –
8 | ethyl 3S-[[2-[[[3-[[(cyanoimino)(methylamino)methyl]amino]phenyl]carbonyl]amino]acetyl]amino]-4-pentynoate [Example 140] | < 4.00 | 5.34 | – | –

Second part, led by results:

Row | pIC50 [1] | pIC50 [2] | pIC50 ([3]; Homo sapiens, Platelet) | Molecule | pIC50 [3]
9 | 5.08 | 7.11 | < 3.70 | CCOC(=O)CC(NC(=O)CNC(=O)c1cccc(NC(=N)N)c1)c1cccnc1 (racemic) [Example 1, (±)ethyl β-[[2-[[[3-[(aminoiminomethyl)amino]phenyl]carbonyl]amino]acetyl]amino]pyridine-3-propanoate, bis(trifluoroacetate)salt] | –
10 | 7.80 | 8.98 | 4.10 | N=C(N)Nc1cccc(C(=O)NCC(=O)NC(CC(=O)O)c2ccc3c(c2)OCO3)c1 (racemic) [Example 6, (±)β-[[2-[[[3-[(aminoiminomethyl)amino]phenyl]carbonyl]amino]acetyl]amino]-1,3-benzodioxole-5-propanoic acid, trifluoroacetate salt] | –
11 | 7.86 | 9.06 | < 4.70 | N=C(N)Nc1cccc(C(=O)NCC(=O)NC(CC(=O)O)c2ccc(-c3ccccc3)cc2)c1 (racemic) [Example 37, (±)β-[[2-[[[3-[(aminoiminomethyl)amino]phenyl]carbonyl]amino]acetyl]amino][1,1′-biphenyl]-4-propanoic acid, trifluoroacetate salt] | –
12 | 6.08 | 7.92 | < 3.70 | N=C(N)Nc1cccc(C(=O)NCC(=O)NC(CC(=O)O)c2cccc3ccccc23)c1 (racemic) [Example 41, (±)β-[[2-[[[3-[(aminoiminomethyl)amino]phenyl]carbonyl]amino]acetyl]amino]naphthalene-1-propanoic acid, trifluoroacetate salt] | –
13 | 6.76 | 7.97 | < 3.70 | COC(=O)CC(CC(=O)O)NC(=O)CNC(=O)c1cccc(NC(=N)N)c1 (racemic) [Example 54, (±)hydrogen methyl 3-[[2-[[[3-[(aminoiminomethyl)amino]phenyl]carbonyl]amino]acetyl]amino]pentanedioate, trifluoroacetate salt] | –
14 | 6.93 | 8.32 | < 3.70 | N=C(N)Nc1cccc(C(=O)NCC(=O)NC(CC(=O)O)c2ccco2)c1 (racemic) [Example 55, (±)β-[[2-[[[3-[(aminoiminomethyl)amino]phenyl]carbonyl]amino]acetyl]amino]furan-2-propanoic acid, trifluoroacetate salt] | –
15 | 7.55 | 8.85 | < 3.70 | COC(=O)c1ccccc1SCCC(CC(=O)O)NC(=O)CNC(=O)c1cccc(NC(=N)N)c1 (racemic) [Example 62, (±)methyl 2-[[3-[2-[[[3-[(aminoiminomethyl)amino]phenyl]carbonyl]amino]acetyl]amino]-4-carboxybutyl]thio]benzoate, trifluoroacetate salt] | –
16 | 8.36 | 8.02 | 4.52 | CN(CC(=O)NC(CC(=O)O)c1cccnc1)C(=O)c1cccc(NC(=N)N)c1 (racemic) [Example 80, (±)β-[[2-[[[3-[(aminoiminomethyl)amino]phenyl]carbonyl]methylamino]acetyl]amino]pyridine-3-propanoic acid, bis(trifluoroacetate)salt] | –
17 | 6.14 | 8.20 | < 3.70 | N=C(N)Nc1cccc(C(=O)NCC(=O)NC(CC(=O)O)c2ccccc2O)c1 (racemic) [Example 87, (±)sodium β-[[2-[[[3-[(aminoiminomethyl)amino]phenyl]carbonyl]amino]acetyl]amino]-2-hydroxybenzenepropanoate, sodium salt, trifluoroacetate salt] | –
18 | 6.29 | 8.67 | – | N=C(N)Nc1cccc(C(=O)NCC(=O)NC(CC(=O)O)c2ccc(F)cc2)c1 (stereo not drawn) [Example 363, β-[[2-[[[3-[(aminoiminomethyl)amino]phenyl]carbonyl]amino]acetyl]amino]-4-fluorobenzenepropanoic acid, trifluoroacetate salt] | –
19 | 7.04 | 9.36 | – | N=C(N)Nc1cccc(C(=O)NCC(=O)NC(CC(=O)O)c2ccc(Br)s2)c1 (stereo not drawn) [Example 366, β-[[2-[[[3-[(aminoiminomethyl)amino]phenyl]carbonyl]amino]acetyl]amino]-5-bromothiophene-2-propanoic acid, trifluoroacetate salt, monohydrate] | –

— patent US6831199B1, “Pyrimidine compounds and derivatives thereof” (G. D. Searle & Co., priority 1995, dated 2004)
